# Laboratory results from patent US10189854B2, “Substituted pyrimidine compounds” (Grünenthal GmbH, priority 2014, dated 2019).
# Target: human PDE4B1 (Homo sapiens (Human), UniProt Q07343)
# Assay: cAMP HTRF assay to determine the activity of hPDE4B1
# Assay type: biochemical
# Details: IC50 inhibition of PDE4B; human recombinant PDE4B1, cAMP HTRF assay
# Procedure, shortened: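 Recombinant human PDE4B1 expressed in Sf9 cells (4.8 U) was incubated with 40 nM cAMP for 30 min at room temperature in Tris buffer, pH 7.8, with MgCl2, DTT and Tween 20. HTRF detection of remaining cAMP followed, with 1 mM IBMX stop, read 60 min later as the 665/620 nm ratio. Results are % inhibition versus control.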
# Sequence of human PDE4B1 (Q07343 whole entry): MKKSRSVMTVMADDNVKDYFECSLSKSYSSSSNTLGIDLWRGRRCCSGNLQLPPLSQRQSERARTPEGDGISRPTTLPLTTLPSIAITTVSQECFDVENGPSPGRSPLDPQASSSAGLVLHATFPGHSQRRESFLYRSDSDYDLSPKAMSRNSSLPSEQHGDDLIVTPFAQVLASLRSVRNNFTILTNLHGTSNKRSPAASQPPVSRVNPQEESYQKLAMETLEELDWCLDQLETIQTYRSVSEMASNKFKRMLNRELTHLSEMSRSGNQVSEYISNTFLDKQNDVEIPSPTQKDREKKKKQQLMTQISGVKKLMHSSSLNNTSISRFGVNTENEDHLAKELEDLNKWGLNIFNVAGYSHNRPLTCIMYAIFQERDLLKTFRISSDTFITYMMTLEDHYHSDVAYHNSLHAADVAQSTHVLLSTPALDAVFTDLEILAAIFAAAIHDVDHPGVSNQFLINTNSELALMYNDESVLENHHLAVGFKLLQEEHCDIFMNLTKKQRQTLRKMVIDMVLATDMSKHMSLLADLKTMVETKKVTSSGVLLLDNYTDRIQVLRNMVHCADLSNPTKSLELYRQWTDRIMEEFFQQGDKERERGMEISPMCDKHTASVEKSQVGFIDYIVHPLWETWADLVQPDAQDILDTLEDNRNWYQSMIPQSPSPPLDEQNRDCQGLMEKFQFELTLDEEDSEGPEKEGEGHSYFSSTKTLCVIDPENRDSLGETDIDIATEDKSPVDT
row,Structure (SMILES),IC50
1,"COc1ccsc1-c1cnc(N2CC3(CC3)c3ccc(C(=O)N4CCOCC4)cc32)nc1 [Compound 139, [1-[5-(3-Methoxy-thiophen-2-yl)-pyrimidin-2-yl]-spiro[1,2-dihydro-indole-3,1′-cyclopropane]-6-yl]-morpholin-4-yl-methanone]",< 0.1 µM
2,"O=C(c1ccc2c(c1)N(c1ncc(-c3cn[nH]c3C(F)(F)F)cn1)CC21CC1)N1CCOCC1 [Compound 140, Morpholin-4-yl-[1-[5-[5-(trifluoromethyl)-1H-pyrazol-4-yl]-pyrimidin-2-yl]-spiro[1,2-dihydro-indole-3,1′-cyclopropane]-6-yl]-methanone]",< 0.1 µM
3,"Cn1cccc1-c1cnc(N2CC3(CC3)c3ccc(C(=O)N4CCOCC4)cc32)nc1 [Compound 141, [1-[5-(1-Methyl-1H-pyrrol-2-yl)-pyrimidin-2-yl]-spiro[1,2-dihydro-indole-3,1′-cyclopropane]-6-yl]-morpholin-4-yl-methaone]",< 0.1 µM
4,"O=C(c1ccc2c(c1)N(c1ncc(-c3ccc(CO)o3)cn1)CC21CC1)N1CCOCC1 [Compound 142, [1-[5-[5-(Hydroxymethyl)-furan-2-yl]-pyrimidin-2-yl]-spiro[1,2-di-hydro-indole-3,1′-cyclopropane]-6-yl]-morpholin-4-yl-methanone]",< 0.1 µM
5,"N#Cc1ccc(-c2cnc(N3CC4(CC4)c4ccc(C(=O)N5CCOCC5)cc43)nc2)s1 [Compound 143, 5-[2-(6-(Morpholine-4-carbonyl)-spiro[1,2-dihydro-indole-3,1′-cyclopropane]-1-yl]-pyrimidin-5-yl]-thiophene-2-carbonitrile]",< 0.1 µM
6,"Cc1n[nH]c(C)c1-c1cnc(N2CC3(CC3)c3ccc(C(=O)N4CCOCC4)cc32)nc1 [Compound 144, [1-[5-(3,5-Dimethyl-1H-pyraozl-4-yl)-pyrimidin-2-yl]-spiro[1,2-di-hydro-indole-3,1′-cyclopropane]-6-yl]-morpholin-4-yl-methanone]",< 0.1 µM
7,"O=C(c1ccc2c(c1)N(c1ncc(-c3cccnc3F)cn1)CC21CC1)N1CCOCC1 [Compound 145, [1-[5-(2-Fluoro-pyridin-3-yl)-pyrimidin-2-yl]-spiro[1,2-dihydro-indole-3,1′-cyclopropane]-6-yl]-morpholin-4-yl-methanone]",< 0.1 µM
8,"O=C(c1ccc2c(c1)N(c1ncc(-c3ccncc3)cn1)CC21CC1)N1CCOCC1 [Compound 146, Morpholin-4-yl-[1-(5-pyridin-4-yl-pyrimidin-2-yl)-spiro[1,2-dihydro-indole-3,1′-cyclopropane]-6-yl]-methanone]",< 0.1 µM
9,"O=C(c1ccc2c(c1)N(c1ncc(-c3ccncc3F)cn1)CC21CC1)N1CCOCC1 [Compound 147, [1-[5-(3-Fluoro-pyridin-4-yl)-pyrimidin-2-yl]-spiro[1,2-dihydro-indole-3,1′-cyclopropane]-6-yl]-morpholin-4-yl-methanone]",< 0.1 µM
10,"O=C(c1ccc2c(c1)N(c1ncc(-c3ccc(F)s3)cn1)CC21CC1)N1CCOCC1 [Compound 148, [1-[5-(5-Fluoro-thiophen-2-yl)-pyrimidin-2-yl]-spiro[1,2-dihydro-indole-3,1′-cyclopropane]-6-yl]-morpholin-4-yl-methanone]",< 0.1 µM
11,"O=C(c1ccc2c(c1)N(c1ncc(-c3ccc(CO)s3)cn1)CC21CC1)N1CCOCC1 [Compound 149, [1-[5-[5-(Hydroxymethyl)-thiophen-2-yl]-pyrimidin-2-yl]-spiro[1,2-dihydro-indole-3,1′-cyclopropane]-6-yl]-morpholin-4-yl-methanone]",< 0.1 µM
12,"O=C(c1ccc2c(c1)N(c1ncc(-c3ccccn3)cn1)CC21CC1)N1CCOCC1 [Compound 150, Moprholin-4-yl-[1-(5-pyridin-2-yl-pyrimidin-2-yl)-spiro[1,2-dihydro-indole-3,1′-cyclopropane]-6-yl]-methanone]",< 0.1 µM
13,"O=C(c1ccc2c(c1)N(c1ncc(-c3cccc(F)n3)cn1)CC21CC1)N1CCOCC1 [Compound 151, [1-[5-(6-Fluoro-pyridin-2-yl)-pyrimidin-2-yl]-spiro[1,2-dihydro-indole-3,1′-cyclopropane]-6-yl]-morpholin-4-yl-methanone]",< 0.1 µM
14,"NC(=O)c1ccc(-c2cnc(N3CC4(CC4)c4ccc(C(=O)N5CCOCC5)cc43)nc2)s1 [Compound 152, 5-[2-[6-(Morpholine-4-carbonyl)-spiro[1,2-dihydro-indole-3,1′-cyclopropane]-1-yl]-pyrimidin-5-yl]-thiophene-2-carboxylic acid amide]",0.1 to 1 µM
15,"N#Cc1ccsc1-c1cnc(N2CC3(CC3)c3ccc(C(=O)N4CCOCC4)cc32)nc1 [Compound 153, 2-[2-[6-(Morpholine-4-carbonyl)-spiro[1,2-dihydro-indole-3,1′-cyclopropane]-1-yl]-pyrimidin-5-yl]-thiophene-3-carbonitrile]",< 0.1 µM
16,"Cc1nc(C)c(-c2cnc(N3CC4(CC4)c4ccc(C(=O)N5CCOCC5)cc43)nc2)s1 [Compound 154, [1-[5-(2,4-Dimethyl-thiazol-5-yl)-pyrimidin-2-yl]-spiro[1,2-dihydro-indole-3,1′-cyclopropane]-6-yl]-morpholin-4-yl-methanone]",< 0.1 µM

row,Structure (SMILES),IC50
1,"Cc1cc(-c2cnc(N3CC4(CC4)c4ccc(C(=O)N5CCOCC5)cc43)nc2)sn1 [Compound 155, [1-[5-(3-Methyl-isothiazol-5-yl)-pyrimidin-2-yl]-spiro[1,2-dihydro-indole-3,1′-cyclopropane]-6-yl]-morpholin-4-yl-methanone]",< 0.1 µM
2,"NC(=O)c1ccc(-c2cnc(N3CC4(CC4)c4ccc(C(=O)N5CCOCC5)cc43)nc2)o1 [Compound 156, 5-[2-[6-(Morpholine-4-carbonyl)-spiro[1,2-dihydro-indole-3,1′-cyclopropane]-1-yl]-pyrimidin-5-yl]-furan-2-carboxylic acid amide]",< 0.1 µM
3,"O=C(c1ccc2c(c1)N(c1ncc(-c3cncc(F)c3)cn1)CC21CC1)N1CCOCC1 [Compound 157, [1-[5-(5-Fluoro-pyridin-3-yl)-pyrimidin-2-yl]-spiro[1,2-dihydro-indole-3,1′-cyclopropane]-6-yl]-morpholin-4-yl-methanone]",< 0.1 µM
4,"CC(=O)Nc1ccc(-c2cnc(N3CC4(CC4)c4ccc(C(=O)N5CCOCC5)cc43)nc2)s1 [Compound 158, N-[5-[2-[6-(Morpholine-4-carbonyl)-spiro[1,2-dihydro-indole-3,1′-cyclopropane]-1-yl]-pyrimidin-5-yl]-thiophen-2-yl]-acetamide]",< 0.1 µM
5,"Cc1cc(-c2cnc(N3CC4(CC4)c4ccc(C(=O)N5CCOCC5)cc43)nc2)ccn1 [Compound 159, [1-[5-(2-Methyl-pyridin-4-yl)-pyrimidin-2-yl]-spiro[1,2-dihydro-indole-3,1′-cyclopropane]-6-yl]-morpholin-4-yl-methanone]",< 0.1 µM
6,"O=C(c1ccc2c(c1)N(c1ncc(-c3ccnc(F)c3)cn1)CC21CC1)N1CCOCC1 [Compound 160, [1-[5-(2-Fluoro-pyridin-4-yl)-pyrimidin-2-yl]-spiro[1,2-dihydro-indole-3,1′-cyclopropane]-6-yl]-morpholin-4-yl-methanone]",< 0.1 µM
7,"N#Cc1csc(-c2cnc(N3CC4(CC4)c4ccc(C(=O)N5CCOCC5)cc43)nc2)c1 [Compound 161, 5-[2-[6-(Morpholine-4-carbonyl)-spiro[1,2-dihydro-indole-3,1′-cyclopropane]-1-yl]-pyrimidin-5-yl]-thiophene-3-carbonitrile]",< 0.1 µM
8,"O=C(c1ccc2c(c1)N(c1ncc(-c3cncnc3)cn1)CC21CC1)N1CCOCC1 [Compound 162, Morpholin-4-yl-[1-(5-pyrimidin-5-yl-pyrimidin-2-yl)-spiro[1,2-dihydro-indole-3,1′-cyclopropane]-6-yl]-methanone]",< 0.1 µM
9,"O=C(c1ccc2c(c1)N(c1ncc(-c3cc(F)cnc3F)cn1)CC21CC1)N1CCOCC1 [Compound 163, [1-[5-(2,5-Difluoro-pyridin-3-yl)-pyrimidin-2-yl]-spiro[1,2-dihydro-indole-3,1′-cyclopropane]-6-yl]-morpholin-4-yl-methanone]",< 0.1 µM
10,"NC(=O)c1ccnc(-c2cnc(N3CC4(CC4)c4ccc(C(=O)N5CCOCC5)cc43)nc2)c1 [Compound 164, 2-[2-[6-(Morpholine-4-carbonyl)-spiro[1,2-dihydro-indole-3,1′-cyclopropane]-1-yl]-pyrimidin-5-yl]-pyridine-4-carboxylic acid amide]",< 0.1 µM
11,"O=C(c1ccc2c(c1)N(c1ncc(-c3ccc(F)cn3)cn1)CC21CC1)N1CCOCC1 [Compound 165, [1-[5-(5-Fluoro-pyridin-2-yl)-pyrimidin-2-yl]-spiro[1,2-dihydro-indole-3,1′-cyclopropane]-6-yl]-morpholin-4-yl-methanone]",< 0.1 µM
12,"O=C(c1ccc2c(c1)N(c1ncc(-c3c(F)cncc3F)cn1)CC21CC1)N1CCOCC1 [Compound 166, [1-[5-(3,5-Difluoro-pyridin-4-yl)-pyrimidin-2-yl]-spiro[1,2-dihydro-indole-3,1′-cyclopropane]-6-yl]-morpholin-4-yl-methanone]",< 0.1 µM
13,"Cc1ncccc1-c1cnc(N2CC3(CC3)c3ccc(C(=O)N4CCOCC4)cc32)nc1 [Compound 167, [1-[5-(2-Methyl-pyridin-3-yl)-pyrimidin-2-yl]-spiro[1,2-dihydro-indole-3,1′-cyclopropane]-6-yl]-morpholin-4-yl-methanone]",< 0.1 µM
14,"O=C(c1cc2c(cn1)C1(CC1)CN2c1ncc(-c2ccccc2F)cn1)N1CCOCC1 [Compound 168, [1-[5-(2-Fluorophenyl)-pyrimidin-2-yl]-spiro[1,2-dihydro-pyrrolo[3,2-c]pyridine-3,1′-cyclopropane]-6-yl]-morpholin-4-yl-methanone]",0.1 to 1 µM
15,"O=C(c1cnc2c(c1)N(c1ncc(-c3ccccc3F)cn1)CC21CC1)N1CCOCC1 [Compound 169, [1-[5-(2-Fluorophenyl)-pyrimidin-2-yl]-spiro[1,2-dihydro-pyrrolo[3,2-b]pyridine-3,1′-cyclopropane]-6-yl]-morpholin-4-yl-methanone]",0.1 to 1 µM
